Columns and labels:
Sclerotinia sclerotiorum = Sclerotinia sclerotiorum / liquid culture (cottony rot); type: cell-based; settings: 72 h, photometrically 3-4 days after application, read-out: control of Sclerotinia sclerotiorum
Protocol: Example B18: Sclerotinia sclerotiorum/Liquid Culture (Cottony Rot) Mycelia fragments of a newly grown liquid culture of the fungus are directly mixed into a nutrient broth (potato dextrose broth). After placing a DMSO solution of test compound into a microtiter plate (96-well format) the nutrient broth containing the fungal material is added. The test plates are incubated at 24° C. and the inhibition of growth is determined photometrically 3-4 days after application.

Pyrenophora teres = Pyrenophora teres / barley / leaf disc preventative (net blotch); type: in vivo; settings: foliar, inoculated 2 days after application
Protocol: Example B16: Pyrenophora teres/Barley/Leaf Disc Preventative (Net Blotch) Barley leaf segments cv. Hasso are placed on agar in a multiwell plate (24-well format) and sprayed with the formulated test compound diluted in water. The leaf segments are inoculated with a spore suspension of the fungus 2 days after application. The inoculated leaf segments are incubated at 20° C. and 65% relative humidity under a light regime of 12 h light/12 h darkness in a climate cabinet and the activity of a compound is assessed as disease control compared to untreated when an appropriate level of disease damage appears in untreated check leaf segments (5-7 days after application).

[1] = tested on: Puccinia recondita f. sp. tritici; assay: Puccinia recondita f. sp. tritici / wheat / leaf disc preventative (brown rust); type: in vivo; settings: foliar, inoculated 1 day after application
Protocol: Example B14: Puccinia recondita f. Sp. Tritici/Wheat/Leaf Disc Preventative (Brown Rust) Wheat leaf segments cv. Kanzler are placed on agar in multiwell plates (24-well format) and sprayed with the formulated test compound diluted in water. The leaf disks are inoculated with a spore suspension of the fungus 1 day after application. The inoculated leaf segments are incubated at 19° C. and 75% relative humidity under a light regime of 12 h light/12 h darkness in a climate cabinet and the activity of a compound is assessed as percent disease control compared to untreated when an appropriate level of disease damage appears in untreated check leaf segments (7-9 days after application).

[2] = tested on: Mycosphaerella graminicola; assay: Mycosphaerella graminicola (Septoria tritici) / liquid culture (Septoria blotch); type: cell-based; settings: Zymoseptoria tritici, 96 h, photometrically 4-5 days after application, read-out: control of Mycosphaerella graminicola
How it was run: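 Conidia from cryogenic storage mixed into potato dextrose broth, added to test compound in DMSO. Plates incubated at 24° C; growth inhibition read photometrically 4-5 days after application.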

Monographella nivalis = Monographella nivalis (Microdochium nivale) / liquid culture (foot rot cereals); type: cell-based; settings: 96 h, photometrically 4-5 days after application, read-out: control of Monographella nivalis
How it was run: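 Microdochium nivale conidia in potato dextrose broth were added to test compound in DMSO and incubated at 24° C. Growth inhibition was measured photometrically 4-5 days after application.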

Mycosphaerella arachidis = Mycosphaerella arachidis (Cercospora arachidicola) / liquid culture (early leaf spot); type: cell-based; settings: 96 h, photometrically 4-5 days after application, read-out: control of Mycosphaerella arachidis
How it was run: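 Cryostored M. arachidis conidia in potato dextrose broth were added to compound applied as DMSO solution. Incubated at 24 °C; growth inhibition measured photometrically 4-5 days after application.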

Botryotinia fuckeliana = Botryotinia fuckeliana (Botrytis cinerea) / liquid culture (gray mould); type: cell-based; settings: 72 h, growth inhibition photometrically 3-4 days after application, read-out: control of Botryotinia fuckeliana
How it was run: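 Botrytis cinerea conidia in Vogels nutrient broth added to test compound delivered in DMSO. Incubated at 24 °C; growth inhibition measured photometrically 3–4 days after application.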

[3] = tested on: Blumeria graminis f. sp. tritici; assay: Blumeria graminis f. sp. tritici / wheat / leaf disc preventative (powdery mildew); type: in vivo; settings: foliar, inoculated 1 day after application
Protocol: Example B7: Blumeria graminis f. Sp. Tritici (Erysiphe graminis f. Sp. Tritici)/Wheat/Leaf Disc Preventative (Powdery Mildew on Wheat) Wheat leaf segments cv. Kanzler are placed on agar in a multiwell plate (24-well format) and sprayed with the formulated test compound diluted in water. The leaf disks are inoculated by shaking powdery mildew infected plants above the test plates 1 day after application. The inoculated leaf disks are incubated at 20° C. and 60% relative humidity under a light regime of 24 h darkness followed by 12 h light/12 h darkness in a climate chamber and the activity of a compound is assessed as percent disease control compared to untreated when an appropriate level of disease damage appears on untreated check leaf segments (6-8 days after application).

Phaeosphaeria nodorum = Phaeosphaeria nodorum (Septoria nodorum) / wheat / leaf disc preventative (glume blotch); type: in vivo; settings: Parastagonospora nodorum, foliar, inoculated 2 days after application
Protocol: Example B9: Phaeosphaeria nodorum (Septoria nodorum)/Wheat/Leaf Disc Preventative (Glume Blotch) Wheat leaf segments cv. Kanzler are placed on agar in a multiwell plate (24-well format) and sprayed with the formulated test compound diluted in water. The leaf disks are inoculated with a spore suspension of the fungus 2 days after application. The inoculated test leaf disks are incubated at 20° C. and 75% relative humidity under a light regime of 12 h light/12 h darkness in a climate cabinet and the activity of a compound is assessed as percent disease control compared to untreated when an appropriate level of disease damage appears in untreated check leaf disks (5-7 days after application).

Glomerella lagenarium = Glomerella lagenarium (Colletotrichum lagenarium) / liquid culture (anthracnose); type: cell-based; settings: Colletotrichum orbiculare, 72 h, photometrically 3-4 days after application, read-out: control of Glomerella lagenarium
How it was run: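 Conidia in potato dextrose broth added to test compound delivered as DMSO solution in microtiter plates; incubation at 24° C. Growth inhibition read photometrically 3-4 days after application.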

Alternaria solani = Alternaria solani / tomato / leaf disc (early blight); type: in vivo; settings: foliar, inoculated 2 days after application, vs untreated control

Cn1cc(C2CN(C(=O)c3cc(-c4ccc(F)cc4F)on3)Cc3ccccc32)cn1 (single isomer, unassigned) [Compound P-143, [5-(2,4-difluorophenyl)isoxazol-3-yl]-[4-(1-methylpyrazol-4-yl)-3,4-dihydro-1H-isoquinolin-2-yl]methanone]
≥ 80%: inhibition of growth at 20 ppm (Sclerotinia sclerotiorum) | pest or weed control at 200 ppm (Pyrenophora teres)

C#Cc1ccc(-c2cc(C(=O)N3Cc4ccccc4C(c4cnn(C)c4)C3)no2)c(F)c1 (stereo not shown) [Compound P-31, [5-(4-ethynyl-2-fluoro-phenyl)isoxazol-3-yl]-[4-(1-methylpyrazol-4-yl)-3,4-dihydro-1H-isoquinolin-2-yl]methanone]
≥ 80%: pest or weed control at 200 ppm [1]

CC1c2ccc(OCC(F)(F)F)cc2C(C)(c2cnn(C)c2)CN1C(=O)c1cc(-c2ccc(F)cc2F)on1 (stereo not shown) [Compound P-34, [5-(2,4-difluorophenyl)isoxazol-3-yl]-[1,4-dimethyl-4-(1-methylpyrazol-4-yl)-6-(2,2,2-trifluoroethoxy)-1,3-dihydroisoquinolin-2-yl]methanone]
≥ 80%: inhibition of growth at 20 ppm [2] | inhibition of growth at 20 ppm (Monographella nivalis) | pest or weed control at 200 ppm [1] | inhibition of growth at 20 ppm (Mycosphaerella arachidis)

Cc1c(C2CN(C(=O)c3nnc(-c4ccc(F)cc4)s3)Cc3ccccc32)cnn1C (stereo not shown) [Compound P-63, [4-(1,5-dimethylpyrazol-4-yl)-3,4-dihydro-1H-isoquinolin-2-yl]-[5-(4-fluorophenyl)-1,3,4-thiadiazol-2-yl]methanone]
≥ 80%: inhibition of growth at 20 ppm [2] | inhibition of growth at 20 ppm (Botryotinia fuckeliana) | pest or weed control at 200 ppm [3] | pest or weed control at 200 ppm (Pyrenophora teres) | inhibition of growth at 20 ppm (Monographella nivalis) | pest or weed control at 200 ppm (Phaeosphaeria nodorum) | inhibition of growth at 20 ppm (Glomerella lagenarium) | inhibition of growth at 20 ppm (Mycosphaerella arachidis) | pest or weed control at 200 ppm (Alternaria solani)

Cc1c(C2c3ccccc3CN(C(=O)c3cc(-c4ccc(F)cc4F)on3)C2(C)C)cnn1C (stereo not shown) [Compound P-100, [5-(2,4-difluorophenyl)isoxazol-3-yl]-[4-(1,5-dimethylpyrazol-4-yl)-3,3-dimethyl-1,4-dihydroisoquinolin-2-yl]methanone]
≥ 80%: inhibition of growth at 20 ppm [2] | inhibition of growth at 20 ppm (Botryotinia fuckeliana) | inhibition of growth at 20 ppm (Sclerotinia sclerotiorum) | pest or weed control at 200 ppm (Pyrenophora teres) | inhibition of growth at 20 ppm (Monographella nivalis) | pest or weed control at 200 ppm (Phaeosphaeria nodorum) | inhibition of growth at 20 ppm (Glomerella lagenarium) | inhibition of growth at 20 ppm (Mycosphaerella arachidis) | pest or weed control at 200 ppm (Alternaria solani)

Cn1cc(C2CN(C(=O)c3cc(-c4ccccc4)on3)Cc3ccc(C(F)(F)F)cc32)cn1 (stereo not shown) [Compound P-104, [4-(1-methylpyrazol-4-yl)-6-(trifluoromethyl)-3,4-dihydro-1H-isoquinolin-2-yl]-(5-phenylisoxazol-3-yl)methanone]
≥ 80%: inhibition of growth at 20 ppm [2] | pest or weed control at 200 ppm [3] | pest or weed control at 200 ppm (Pyrenophora teres) | inhibition of growth at 20 ppm (Monographella nivalis) | pest or weed control at 200 ppm (Phaeosphaeria nodorum) | inhibition of growth at 20 ppm (Glomerella lagenarium) | pest or weed control at 200 ppm [1] | inhibition of growth at 20 ppm (Mycosphaerella arachidis) | pest or weed control at 200 ppm (Alternaria solani)

Cc1ccc2c(c1)C(c1cnn(C)c1)CN(C(=O)c1cc(-c3ccc(F)cc3F)on1)C2 (stereo not shown) [Compound P-133, [5-(2,4-difluorophenyl)isoxazol-3-yl]-[6-methyl-4-(1-methylpyrazol-4-yl)-3,4-dihydro-1H-isoquinolin-2-yl]methanone]
≥ 80%: inhibition of growth at 20 ppm [2] | inhibition of growth at 20 ppm (Monographella nivalis) | pest or weed control at 200 ppm [1] | inhibition of growth at 20 ppm (Mycosphaerella arachidis) | pest or weed control at 200 ppm (Alternaria solani)

CC1c2ccccc2C(c2cnn(C)c2)CN1C(=O)c1cc(-c2ccc(F)cc2F)on1 (stereo not shown) [Compound P-141, [5-(2,4-difluorophenyl)isoxazol-3-yl]-[1-methyl-4-(1-methylpyrazol-4-yl)-3,4-dihydro-1H-isoquinolin-2-yl]methanone]
≥ 80%: inhibition of growth at 20 ppm [2] | inhibition of growth at 20 ppm (Botryotinia fuckeliana) | pest or weed control at 200 ppm [3] | pest or weed control at 200 ppm (Pyrenophora teres) | inhibition of growth at 20 ppm (Monographella nivalis) | pest or weed control at 200 ppm (Phaeosphaeria nodorum) | inhibition of growth at 20 ppm (Glomerella lagenarium) | inhibition of growth at 20 ppm (Mycosphaerella arachidis) | pest or weed control at 200 ppm (Alternaria solani)

Cn1cc(C2CN(C(=O)c3cc(-c4ccc(F)cc4F)no3)Cc3ccccc32)cn1 (stereo not shown) [Compound P-151, [3-(2,4-difluorophenyl)isoxazol-5-yl]-[4-(1-methylpyrazol-4-yl)-3,4-dihydro-1H-isoquinolin-2-yl]methanone]
≥ 80%: inhibition of growth at 20 ppm [2] | inhibition of growth at 20 ppm (Botryotinia fuckeliana) | pest or weed control at 200 ppm [3] | pest or weed control at 200 ppm (Pyrenophora teres) | inhibition of growth at 20 ppm (Monographella nivalis) | pest or weed control at 200 ppm (Phaeosphaeria nodorum) | inhibition of growth at 20 ppm (Glomerella lagenarium) | inhibition of growth at 20 ppm (Mycosphaerella arachidis) | pest or weed control at 200 ppm (Alternaria solani)

CCc1ccc(-c2cc(C(=O)N3Cc4ccccc4C(c4cnn(C)c4)C3)no2)cc1 (stereo not shown) [Compound P-171, [5-(4-ethylphenyl)isoxazol-3-yl]-[4-(1-methylpyrazol-4-yl)-3,4-dihydro-1H-isoquinolin-2-yl]methanone]
≥ 80%: pest or weed control at 200 ppm [1]

Cc1cc(C(=O)N2Cc3ccccc3C(c3cnn(C)c3)C2)no1 (stereo not shown) [Compound P-194, (5-methylisoxazol-3-yl)-[4-(1-methylpyrazol-4-yl)-3,4-dihydro-1H-isoquinolin-2-yl]methanone]
≥ 80%: inhibition of growth at 20 ppm [2] | inhibition of growth at 20 ppm (Monographella nivalis) | inhibition of growth at 20 ppm (Glomerella lagenarium) | pest or weed control at 200 ppm [1] | inhibition of growth at 20 ppm (Mycosphaerella arachidis)

Cn1cc(C2CN(C(=O)c3cc(-c4cccs4)on3)Cc3ccccc32)cn1 (stereo not shown) [Compound P-206, [4-(1-methylpyrazol-4-yl)-3,4-dihydro-1H-isoquinolin-2-yl]-[5-(2-thienyl)isoxazol-3-yl]methanone]
≥ 80%: inhibition of growth at 20 ppm [2] | inhibition of growth at 20 ppm (Monographella nivalis) | inhibition of growth at 20 ppm (Glomerella lagenarium) | pest or weed control at 200 ppm [1]

Reference: patent publication US20250325534A1, “MICROBIOCIDAL TETRAHYDROISOQUINOLINE DERIVATIVES” (SYNGENTA CROP PROTECTION AG, priority 2021, published 2025)
